Laboratory results taken from patent US20020137929A1, “1 - (3-heterocyclylphenyl) isothiourea, -isourea, -guanidine and -amidine herbicidal agents” (Intellectual Property Department, BASF Aktiengesellschaft, priority 1998, published 2002).

Key:
ABUTH (Velvetleaf) = assay: Postemergence herbicidal evaluation; assay type: in vivo, Abutilon theophrasti
In short: (§1)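 Each compound, dispersed in an acetone/water mix (50/50) carrying 0.5% TWEEN 20, is nozzle-sprayed at 40 psi on approximately two-week-old seedlings at about 0.0156–0.500 kg/ha. Plants are assessed 4–5 weeks afterward on a 0–9 scale relative to control; duplicate tests are averaged.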

MOOVA (Monochoria) = assay: Preemergence weed control under flooded paddy conditions; assay type: in vivo, Monochoria vaginalis; conditions: rated 3-4 weeks after treatment
In short: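 Seeds or propagules sown in silt loam kept flooded 1.5-3 cm; compounds in 50/50 acetone/water pipetted into flood water at about 0.0313 to 0.500 kg/ha. Greenhouse; visual 0-9 rating versus untreated control 3-4 weeks after treatment.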

[1] = test system: TRZAWR (Wheat, Winter, cv Riband); assay: Preemergence herbicidal evaluation; assay type: in vivo, Triticum aestivum; conditions: rated 4-5 weeks after treatment
In short: (§2)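 Seeds were planted in potting soil in cups, then sprayed preemergence with the test compound in aqueous acetone at about 0.0156 to 0.500 kg per hectare. Cups were kept under greenhouse conditions and visually rated 4–5 weeks after treatment on a 0–9 scale against an untreated control.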

CYPSE (Flatsedge) = assay: Postemergence weed control under flooded paddy conditions; assay type: in vivo, Cyperus serotinus; conditions: postemergence weeds
In short: (§3)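 With weeds 3 to 5 cm tall and rice at the 1.5 to 2.5 leaf stage, containers were flooded and water held 1.5 to 3 cm above soil. Compounds in 50/50 v/v aqueous/acetone went into the flood water at about 0.0313 to 0.500 kg/ha a.i. Effects were visually rated 0–9 against controls after three to four weeks in the greenhouse.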

ECHCG (Barnyardgrass) = assay: Postemergence herbicidal evaluation; assay type: in vivo, Echinochloa crus-galli
In short: as §1

CYPIR (Rice Flatsedge) [2] = assay: Postemergence weed control under flooded paddy conditions; assay type: in vivo, Cyperus iria; conditions: postemergence weeds
In short: as §3

[3] = test system: ECHORC (Watergrass (Calif.)); assay: Preemergence weed control under flooded paddy conditions; assay type: in vivo, Echinochloa oryzoides; conditions: rated 3-4 weeks after treatment
In short: (§4)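 Seeds or propagules sown in top 0.5 cm of silt loam soil, flooded 1.5 to 3 cm above surface throughout. Compound in 50/50 v/v aqueous/acetone pipetted into flood water at about 0.0313 to 0.500 kg/ha. Visual 0-9 rating versus control after three to four weeks in greenhouse.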

[4] = test system: SAGPY (Arrowhead (Pygmaea)); assay: Postemergence weed control under flooded paddy conditions; assay type: in vivo, Sagittaria pygmaea; conditions: postemergence weeds
In short: as §3

CYPIR (Rice Flatsedge) [5] = assay: Preemergence weed control under flooded paddy conditions; assay type: in vivo, Cyperus iria; conditions: rated 3-4 weeks after treatment
In short: as §4

ORYSAT (Rice, Tebonnet) = assay: Postemergence herbicidal evaluation; assay type: in vivo, Oryza sativa, (L.) Tebonnet
In short: as §1

[6] = test system: IPOHE (Morningglory, Ivyleaf); assay: Preemergence herbicidal evaluation; assay type: in vivo, Ipomoea hederacea; conditions: rated 4-5 weeks after treatment
In short: as §2

GALAP (Galium) = assay: Postemergence herbicidal evaluation; assay type: in vivo, Galium aparine
In short: as §1

SETVI (Foxtail, Green) = assay: Postemergence herbicidal evaluation; assay type: in vivo, Setaria viridis
In short: as §1

ZEAMX (Corn, Field) = assay: Preemergence herbicidal evaluation; assay type: in vivo, Zea mays; conditions: rated 4-5 weeks after treatment
In short: as §2

[7] = Rate 0.0313 kg/ha, rated 3 to 4 weeks after treatment
[8] = Rate 0.0625 kg/ha, rated 3 to 4 weeks after treatment
[9] = Rate 0.1250 kg/ha, rated 3 to 4 weeks after treatment
[10] = Rate 0.2500 kg/ha, rated 3 to 4 weeks after treatment
[11] = rate 0.0313 kg/ha, 3-4 weeks after treatment
[12] = rate 0.0625 kg/ha, 3-4 weeks after treatment
[13] = rate 0.1250 kg/ha, 3-4 weeks after treatment
[14] = rate 0.2500 kg/ha, 3-4 weeks after treatment

C=CCN1C(=O)C(CC(=O)O)SC1=Nc1cc(-n2c(=O)cc(C(F)(F)F)n(C)c2=O)c(F)cc1Cl (centres unmarked) [Compound 62, 3-Allyl-2-{{2-chloro-5-[3,6-dihydro-3-methyl-2,6-dioxo-4-(trifluoromethyl)-1(2H)-pyrimidinyl]-4-fluorophenyl}imino}-4-oxo-5-thiazolidineacetic acid]
Postemergence herbicidal rating ABUTH (ABUTH (Velvetleaf); Rate 0.0158 kg/ha): 9.0
Postemergence herbicidal rating ABUTH (ABUTH (Velvetleaf); Rate 0.0315 kg/ha): 9.0
Postemergence herbicidal rating ABUTH (ABUTH (Velvetleaf); Rate 0.0630 kg/ha): 9.0
MOOVA herbicidal effect rating (MOOVA (Monochoria); 0.0313 kg/ha): 4.0
MOOVA herbicidal effect rating (MOOVA (Monochoria); 0.0625 kg/ha): 9.0
MOOVA herbicidal effect rating (MOOVA (Monochoria); 0.1250 kg/ha): 9.0
MOOVA herbicidal effect rating (MOOVA (Monochoria); 0.2500 kg/ha): 9.0
Preemergence herbicidal rating TRZAWR ([1]; rate 0.0156 kg/ha): 0.0
Preemergence herbicidal rating TRZAWR ([1]; rate 0.0625 kg/ha): 1.0
Preemergence herbicidal rating TRZAWR ([1]; rate 0.1250 kg/ha): 1.0
Preemergence herbicidal rating TRZAWR ([1]; rate 0.2500 kg/ha): 2.0
Herbicidal rating CYPSE (CYPSE (Flatsedge); [7]): 0.0
Herbicidal rating CYPSE (CYPSE (Flatsedge); [8]): 0.0
Herbicidal rating CYPSE (CYPSE (Flatsedge); [9]): 0.0
Herbicidal rating CYPSE (CYPSE (Flatsedge); [10]): 0.0
Postemergence herbicidal rating ECHCG (ECHCG (Barnyardgrass); Rate 0.0158 kg/ha): 4.0
Postemergence herbicidal rating ECHCG (ECHCG (Barnyardgrass); Rate 0.0315 kg/ha): 6.0
Postemergence herbicidal rating ECHCG (ECHCG (Barnyardgrass); Rate 0.0630 kg/ha): 7.0
Herbicidal rating CYPIR (CYPIR (Rice Flatsedge) [2]; [7]): 0.0
Herbicidal rating CYPIR (CYPIR (Rice Flatsedge) [2]; [8]): 2.0
Herbicidal rating CYPIR (CYPIR (Rice Flatsedge) [2]; [9]): 9.0
Herbicidal rating CYPIR (CYPIR (Rice Flatsedge) [2]; [10]): 9.0
ECHORC herbicidal effect rating ([3]; 0.0313 kg/ha): 0.0
ECHORC herbicidal effect rating ([3]; 0.0625 kg/ha): 0.0
ECHORC herbicidal effect rating ([3]; 0.1250 kg/ha): 2.0
ECHORC herbicidal effect rating ([3]; 0.2500 kg/ha): 5.0
Herbicidal rating SAGPY [4, 7]: 0.0
Herbicidal rating SAGPY [4, 8]: 0.0
Herbicidal rating SAGPY [4, 9]: 3.0
Herbicidal rating SAGPY [4, 10]: 6.0
CYPIR herbicidal effect rating (CYPIR (Rice Flatsedge) [5]; 0.0313 kg/ha): 0.0
CYPIR herbicidal effect rating (CYPIR (Rice Flatsedge) [5]; 0.0625 kg/ha): 2.0
CYPIR herbicidal effect rating (CYPIR (Rice Flatsedge) [5]; 0.1250 kg/ha): 9.0
CYPIR herbicidal effect rating (CYPIR (Rice Flatsedge) [5]; 0.2500 kg/ha): 9.0
Postemergence herbicidal rating ORYSAT (ORYSAT (Rice, Tebonnet); Rate 0.0158 kg/ha): 4.5
Postemergence herbicidal rating ORYSAT (ORYSAT (Rice, Tebonnet); Rate 0.0315 kg/ha): 5.0
Postemergence herbicidal rating ORYSAT (ORYSAT (Rice, Tebonnet); Rate 0.0630 kg/ha): 7.0
Preemergence herbicidal rating IPOHE ([6]; rate 0.0156 kg/ha): 0.0
Preemergence herbicidal rating IPOHE ([6]; rate 0.0313 kg/ha): 3.0
Preemergence herbicidal rating IPOHE ([6]; rate 0.0625 kg/ha): 5.0
Preemergence herbicidal rating IPOHE ([6]; rate 0.1250 kg/ha): 7.0
Preemergence herbicidal rating IPOHE ([6]; rate 0.2500 kg/ha): 9.0
Postemergence herbicidal rating GALAP (GALAP (Galium); Rate 0.0158 kg/ha): 1.0
Postemergence herbicidal rating GALAP (GALAP (Galium); Rate 0.0315 kg/ha): 5.0
Postemergence herbicidal rating GALAP (GALAP (Galium); Rate 0.0630 kg/ha): 5.0
Postemergence herbicidal rating SETVI (SETVI (Foxtail, Green); Rate 0.0158 kg/ha): 9.0
Postemergence herbicidal rating SETVI (SETVI (Foxtail, Green); Rate 0.0315 kg/ha): 9.0
Postemergence herbicidal rating SETVI (SETVI (Foxtail, Green); Rate 0.0630 kg/ha): 8.0
Preemergence herbicidal rating ZEAMX (ZEAMX (Corn, Field); rate 0.0156 kg/ha): 0.0
Preemergence herbicidal rating ZEAMX (ZEAMX (Corn, Field); rate 0.0313 kg/ha): 1.0
Preemergence herbicidal rating ZEAMX (ZEAMX (Corn, Field); rate 0.0625 kg/ha): 1.0
Preemergence herbicidal rating ZEAMX (ZEAMX (Corn, Field); rate 0.1250 kg/ha): 3.0
Preemergence herbicidal rating ZEAMX (ZEAMX (Corn, Field); rate 0.2500 kg/ha): 7.0

CCOC(=O)CN1C(=O)C(CC(=O)O)O/C1=N/c1cc(-n2c(=O)cc(C(F)(F)F)n(C)c2=O)c(F)cc1Cl (centres unmarked) [Compound 41, 2-{{2-Chloro-5-[3,6-dihydro-3-methyl-2,6-dioxo-4-(trifluoromethyl)-1(2H)-pyrimidinyl]-4-fluoro-phenyl}imino}-4-oxo-3,5-oxazolidinediacetic acid, 3-ethyl ester]
Postemergence herbicidal rating ABUTH (ABUTH (Velvetleaf); Rate 0.0158 kg/ha): 9.0
Postemergence herbicidal rating ABUTH (ABUTH (Velvetleaf); Rate 0.0315 kg/ha): 9.0
Postemergence herbicidal rating ABUTH (ABUTH (Velvetleaf); Rate 0.0630 kg/ha): 9.0
Herbicidal rating MOOVA (MOOVA (Monochoria); 0.0313 kg/ha): 6.0
Herbicidal rating MOOVA (MOOVA (Monochoria); 0.0625 kg/ha): 9.0
Herbicidal rating MOOVA (MOOVA (Monochoria); 0.1250 kg/ha): 9.0
Herbicidal rating MOOVA (MOOVA (Monochoria); 0.2500 kg/ha): 9.0
Preemergence herbicidal rating TRZAWR ([1]; rate 0.0156 kg/ha): 0.0
Preemergence herbicidal rating TRZAWR ([1]; rate 0.0313 kg/ha): 0.0
Preemergence herbicidal rating TRZAWR ([1]; rate 0.0625 kg/ha): 0.0
Preemergence herbicidal rating TRZAWR ([1]; rate 0.1250 kg/ha): 0.0
Preemergence herbicidal rating TRZAWR ([1]; rate 0.2500 kg/ha): 0.0
Herbicidal rating CYPSE (CYPSE (Flatsedge); [11]): 0.0
Herbicidal rating CYPSE (CYPSE (Flatsedge); [12]): 0.0
Herbicidal rating CYPSE (CYPSE (Flatsedge); [13]): 2.0
Herbicidal rating CYPSE (CYPSE (Flatsedge); [14]): 7.0
Postemergence herbicidal rating ECHCG (ECHCG (Barnyardgrass); Rate 0.0158 kg/ha): 2.0
Postemergence herbicidal rating ECHCG (ECHCG (Barnyardgrass); Rate 0.0315 kg/ha): 7.0
Postemergence herbicidal rating ECHCG (ECHCG (Barnyardgrass); Rate 0.0630 kg/ha): 9.0
Herbicidal rating CYPIR (CYPIR (Rice Flatsedge) [2]; [11]): 0.0
Herbicidal rating CYPIR (CYPIR (Rice Flatsedge) [2]; [12]): 0.0
Herbicidal rating CYPIR (CYPIR (Rice Flatsedge) [2]; [13]): 0.0
Herbicidal rating CYPIR (CYPIR (Rice Flatsedge) [2]; [14]): 4.0
Herbicidal rating ECHORC ([3]; 0.0313 kg/ha): 3.0
Herbicidal rating ECHORC ([3]; 0.0625 kg/ha): 4.0
Herbicidal rating ECHORC ([3]; 0.1250 kg/ha): 6.0
Herbicidal rating ECHORC ([3]; 0.2500 kg/ha): 7.0
Herbicidal rating SAGPY [4, 11]: 0.0
Herbicidal rating SAGPY [4, 12]: 0.0
Herbicidal rating SAGPY [4, 13]: 0.0
Herbicidal rating SAGPY [4, 14]: 6.0
Herbicidal rating CYPIR (CYPIR (Rice Flatsedge) [5]; 0.0313 kg/ha): 0.0
Herbicidal rating CYPIR (CYPIR (Rice Flatsedge) [5]; 0.0625 kg/ha): 0.0
Herbicidal rating CYPIR (CYPIR (Rice Flatsedge) [5]; 0.1250 kg/ha): 0.0
Herbicidal rating CYPIR (CYPIR (Rice Flatsedge) [5]; 0.2500 kg/ha): 4.0
Postemergence herbicidal rating ORYSAT (ORYSAT (Rice, Tebonnet); Rate 0.0158 kg/ha): 2.5
Postemergence herbicidal rating ORYSAT (ORYSAT (Rice, Tebonnet); Rate 0.0315 kg/ha): 3.5
Postemergence herbicidal rating ORYSAT (ORYSAT (Rice, Tebonnet); Rate 0.0630 kg/ha): 3.5
Preemergence herbicidal rating IPOHE ([6]; rate 0.0156 kg/ha): 0.0
Preemergence herbicidal rating IPOHE ([6]; rate 0.0313 kg/ha): 0.0
Preemergence herbicidal rating IPOHE ([6]; rate 0.0625 kg/ha): 7.0
Preemergence herbicidal rating IPOHE ([6]; rate 0.1250 kg/ha): 9.0
Preemergence herbicidal rating IPOHE ([6]; rate 0.2500 kg/ha): 9.0
Postemergence herbicidal rating GALAP (GALAP (Galium); Rate 0.0158 kg/ha): 1.0
Postemergence herbicidal rating GALAP (GALAP (Galium); Rate 0.0315 kg/ha): 2.0
Postemergence herbicidal rating GALAP (GALAP (Galium); Rate 0.0630 kg/ha): 5.0
Postemergence herbicidal rating SETVI (SETVI (Foxtail, Green); Rate 0.0158 kg/ha): 1.0
Postemergence herbicidal rating SETVI (SETVI (Foxtail, Green); Rate 0.0315 kg/ha): 3.0
Postemergence herbicidal rating SETVI (SETVI (Foxtail, Green); Rate 0.0630 kg/ha): 9.0
Preemergence herbicidal rating ZEAMX (ZEAMX (Corn, Field); rate 0.0156 kg/ha): 0.0
Preemergence herbicidal rating ZEAMX (ZEAMX (Corn, Field); rate 0.0313 kg/ha): 0.0
Preemergence herbicidal rating ZEAMX (ZEAMX (Corn, Field); rate 0.0625 kg/ha): 1.0
Preemergence herbicidal rating ZEAMX (ZEAMX (Corn, Field); rate 0.1250 kg/ha): 0.0
Preemergence herbicidal rating ZEAMX (ZEAMX (Corn, Field); rate 0.2500 kg/ha): 2.0
